How the values were obtained:
SMMC-7721 cells = test: MTT cytotoxicity assay, SMMC-7721; format: cell-based, human; details: 48 h exposure
Description: (§1) The in vitro cytotoxic activities of synthesized compounds were evaluated against two human hepatocarcinoma cell lines (SMMC-7721 and HepG2) and the human normal hepatocyte cell line (LO2) via MTT assay. All tested compounds were dissolved in DMSO and the stock solutions were diluted by DMEM medium before treatment of the cultured cells. […] Cell lines were obtained from American Tissue Culture Collection (ATCC). Briefly, different tumor cells were grown in DMEM medium supplemented with 10% fetal bovine serum, penicillin (100 U/mL), and streptomycin (50 μg/mL). Cells were harvested at log phase of growth and seeded in 96-well plates (100 μL/well at a density of 2 × 10^5 cells/mL). After 24 h incubation at 37 °C and 5% CO2 to allow cell attachment, cultures were exposed to various concentrations of the isolated compounds for 48 h. Finally, MTT solution (2.5 mg/mL in PBS) was added (40 μL/well). Plates were further incubated for 4 h at 37 °C, and the formazan crystals formed were dissolved by adding 150 μL/well of DMSO. Absorption at 570 nm was measured with an ELISA plate reader. […] Doxorubicin, camptothecin, and etoposide (VP-16) were co-assayed as positive controls.

HepG2 cells = test: MTT cytotoxicity assay, HepG2; format: cell-based, human; details: 48 h exposure
Description: as §1

LO2 cells = test: MTT cytotoxicity assay, normal hepatocyte LO2; format: cell-based; details: Homo sapiens, L02, 48 h exposure, normal hepatocyte cell line
Description: as §1

DNA topoisomerase I = molecular target: T1, DNA topoisomerase I (Bos taurus, UniProt F1MN93); test: Topoisomerase I relaxation assay (supercoiled pBR322); format: biochemical; details: for inhibition at 20 µM: 20 μM compound, read-out: Topo I Inhibition (%) 20 μM; for inhibition at 100 µM: 100 μM compound, read-out: Topo I Inhibition (%) 100 μM
T1 construct: purchased TaKaRa, Kyoto, Japan
T1 sequence (F1MN93 1-767): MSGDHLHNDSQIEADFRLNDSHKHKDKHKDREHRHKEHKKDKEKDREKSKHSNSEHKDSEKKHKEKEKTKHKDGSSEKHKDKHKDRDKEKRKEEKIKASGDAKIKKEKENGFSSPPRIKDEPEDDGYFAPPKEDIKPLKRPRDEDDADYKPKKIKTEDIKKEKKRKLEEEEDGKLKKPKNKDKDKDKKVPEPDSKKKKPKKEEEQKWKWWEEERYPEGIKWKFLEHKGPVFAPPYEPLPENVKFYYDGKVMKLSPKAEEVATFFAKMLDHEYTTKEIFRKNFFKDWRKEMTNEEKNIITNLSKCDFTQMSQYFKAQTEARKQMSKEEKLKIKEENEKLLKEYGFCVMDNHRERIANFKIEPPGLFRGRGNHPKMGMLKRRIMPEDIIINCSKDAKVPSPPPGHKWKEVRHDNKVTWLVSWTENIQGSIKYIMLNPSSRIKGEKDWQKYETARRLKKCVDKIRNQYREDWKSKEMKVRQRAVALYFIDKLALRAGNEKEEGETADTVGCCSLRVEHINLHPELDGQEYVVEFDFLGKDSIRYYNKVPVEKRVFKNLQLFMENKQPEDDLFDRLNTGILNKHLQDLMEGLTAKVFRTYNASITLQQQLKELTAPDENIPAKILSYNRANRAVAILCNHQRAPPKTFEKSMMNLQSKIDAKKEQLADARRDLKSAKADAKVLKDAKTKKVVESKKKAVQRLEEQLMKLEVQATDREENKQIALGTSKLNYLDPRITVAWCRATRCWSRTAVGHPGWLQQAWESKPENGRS
Description: The effect of the tested compounds on Topo I and II activities were evaluated by Topo I/II relaxation assays. The reaction products, relaxed DNA could be distinguished from supercoiled DNA by gel electrophoresis and visualized using gel imaging system. The activity of DNA topoisomerase I (TaKaRa, Kyoto, Japan) was determined by measuring the relaxation of supercoiled DNA pBR322 [32]. Camptothecin was used as a positive control. The reaction mixture was prepared according to the manufacture's protocol, and incubated at 37 °C for 30 min. The reactions were terminated by adding dye solution containing 1% SDS, 0.02% bromophenol blue and 50% glycerol. The mixtures were applied to 1% agarose gel and subjected to electrophoresis for 1 h, in 1× TAE buffer (40 mM Tris-acetate, 1 mM EDTA). Gels were stained for 30 min in 60 mL 1× TAE buffer with ethidium bromide (0.5 μg/mL). DNA bands were visualized by transillumination with UV light and then photographed by a Gel Doc XR+ System (BIO-RAD, Hercules, CA, USA).

Human Topoisomerase IIα = molecular target: T2, Human Topoisomerase IIα (Homo sapiens, UniProt P11388); test: Topoisomerase II relaxation assay (supercoiled pBR322); format: biochemical; details: for inhibition at 20 µM: 20 μM compound, read-out: Topo II Inhibition (%) 20 μM; for inhibition at 100 µM: 100 μM compound, read-out: Topo II Inhibition (%) 100 μM
T2 construct: purchased USB, Affymetrix, Waltham, MA, USA
T2 sequence (P11388 whole entry): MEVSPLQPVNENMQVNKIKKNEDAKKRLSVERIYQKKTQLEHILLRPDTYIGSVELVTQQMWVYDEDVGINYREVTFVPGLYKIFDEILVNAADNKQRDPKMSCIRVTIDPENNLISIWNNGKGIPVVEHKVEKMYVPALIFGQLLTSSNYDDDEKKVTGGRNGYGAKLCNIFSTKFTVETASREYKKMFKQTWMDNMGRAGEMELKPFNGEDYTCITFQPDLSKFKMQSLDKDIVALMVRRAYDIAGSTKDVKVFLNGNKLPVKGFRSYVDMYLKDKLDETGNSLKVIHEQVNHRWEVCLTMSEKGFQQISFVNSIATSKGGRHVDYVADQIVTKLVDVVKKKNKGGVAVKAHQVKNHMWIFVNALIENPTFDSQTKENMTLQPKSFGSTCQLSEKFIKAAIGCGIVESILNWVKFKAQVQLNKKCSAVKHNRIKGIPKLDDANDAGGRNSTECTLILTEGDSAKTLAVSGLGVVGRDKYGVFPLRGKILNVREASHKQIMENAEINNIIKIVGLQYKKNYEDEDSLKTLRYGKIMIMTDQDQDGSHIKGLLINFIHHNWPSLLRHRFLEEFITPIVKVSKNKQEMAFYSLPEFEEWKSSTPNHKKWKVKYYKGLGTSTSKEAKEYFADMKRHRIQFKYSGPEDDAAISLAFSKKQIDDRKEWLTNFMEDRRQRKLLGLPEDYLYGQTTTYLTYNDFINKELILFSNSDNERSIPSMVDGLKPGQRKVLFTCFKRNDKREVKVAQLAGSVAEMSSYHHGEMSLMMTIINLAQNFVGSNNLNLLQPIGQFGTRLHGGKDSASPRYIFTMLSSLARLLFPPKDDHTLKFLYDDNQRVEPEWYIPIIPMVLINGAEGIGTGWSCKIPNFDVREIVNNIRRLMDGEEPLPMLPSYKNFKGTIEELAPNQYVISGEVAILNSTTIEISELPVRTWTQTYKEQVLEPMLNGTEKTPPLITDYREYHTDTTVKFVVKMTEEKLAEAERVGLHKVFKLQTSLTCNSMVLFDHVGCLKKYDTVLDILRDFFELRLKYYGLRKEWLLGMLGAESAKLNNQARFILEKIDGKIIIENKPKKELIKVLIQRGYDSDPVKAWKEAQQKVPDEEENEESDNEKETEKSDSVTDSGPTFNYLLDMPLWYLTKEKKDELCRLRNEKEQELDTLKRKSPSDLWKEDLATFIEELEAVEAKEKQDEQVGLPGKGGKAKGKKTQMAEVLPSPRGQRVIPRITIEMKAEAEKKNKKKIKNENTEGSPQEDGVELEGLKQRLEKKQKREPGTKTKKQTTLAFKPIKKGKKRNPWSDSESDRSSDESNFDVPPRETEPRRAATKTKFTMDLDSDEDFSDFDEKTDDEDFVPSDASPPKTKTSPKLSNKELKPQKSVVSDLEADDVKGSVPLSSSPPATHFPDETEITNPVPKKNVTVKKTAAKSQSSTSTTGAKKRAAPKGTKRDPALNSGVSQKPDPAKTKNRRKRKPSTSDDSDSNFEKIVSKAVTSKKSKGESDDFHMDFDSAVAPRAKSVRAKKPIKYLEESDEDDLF
Description: The effect of the tested compounds on Topo I and II activities were evaluated by Topo I/II relaxation assays. The reaction products, relaxed DNA could be distinguished from supercoiled DNA by gel electrophoresis and visualized using gel imaging system. Human Topoisomerase IIα activity was detected by measuring the relaxation of supercoiled pBR322 plasmid DNA [22]. […] For inhibition studies, the compounds were pre-incubated with human Topo IIα and DNA for 15 min. Compounds were used at the appropriate concentrations by dissolving in 2% (v/v) DMSO. DMSO didn't show detrimental effect on the enzyme activity at concentration up to 2% (v/v). Reaction mixture was incubated at 37 °C for 30 min and stopped by the addition of 7 mM EDTA. Reaction product was mixed with DNA loading dye and electrophoresed on 1% TAE-Agarose. The gel was stained with ethidium bromide (0.5 μg/mL) for 30 min, destained twice in 1× TAE buffer, and then visualized using a BIO-RAD Gel Doc XR+ System. Etoposide (VP-16) was co-assayed as a positive control.

SMILES | IC50 (SMMC-7721 cells; Homo sapiens, SMMC-7721, 48 h) [µM] | IC50 (HepG2 cells; Homo sapiens, HepG2, 48 h) [µM] | IC50 (LO2 cells) [µM] | inhibition at 20 µM (DNA topoisomerase I) [%] | inhibition at 100 µM (DNA topoisomerase I) [%] | inhibition at 20 µM (Human Topoisomerase IIα) [%] | inhibition at 100 µM (Human Topoisomerase IIα) [%] | melting point [°C] | IC50 (SMMC-7721 cells) [µM] | IC50 (HepG2 cells) [µM]
Cc1ccc2[nH]c3c(c2c1)C[C@@]1(C)C(CC[C@]2(C)C1CC=C1C4[C@@H](C)[C@H](C)CC[C@]4(C(=O)NCCN)CC[C@]12C)C3(C)C (some centres unmarked) [4a, N-(2-Aminoethyl)-5′-methyl-1′H-ursa-2,12-dieno[3,2-b]indol-28-carboxamide] | 3.5 ± 0.61 | 3.31 ± 0.35 | 29.6 ± 2.12 | 5.6 | 15.1 | 25.9 | 69.7 | 228 to 230 | – | –
Cc1ccc2[nH]c3c(c2c1)C[C@@]1(C)C(CC[C@]2(C)C1CC=C1C4[C@@H](C)[C@H](C)CC[C@]4(C(=O)NCCN(C)C)CC[C@]12C)C3(C)C (some centres unmarked) [4b, N-(2-(Dimethylamino)ethyl)-5′-methyl-1′H-ursa-2,12-dieno[3,2-b]indol-28-carboxamide] | 4.42 ± 0.71 | 4.11 ± 0.55 | 31.1 ± 2.63 | – | 3.7 | 36.9 | 68 | 166 to 168 | – | –
CCN(CC)CCNC(=O)[C@]12CC[C@@H](C)[C@H](C)C1C1=CCC3[C@@]4(C)Cc5c([nH]c6ccc(C)cc56)C(C)(C)C4CC[C@@]3(C)[C@]1(C)CC2 (some centres unmarked) [4c, N-(2-(Diethylamino)ethyl)-5′-methyl-1′H-ursa-2,12-dieno[3,2-b]indol-28-carboxamide] | 2.1 ± 0.21 | 2.24 ± 0.32 | 26.4 ± 1.32 | – | 0 | 38.3 | 68.7 | – | – | –
Cc1ccc2[nH]c3c(c2c1)C[C@@]1(C)C(CC[C@]2(C)C1CC=C1C4[C@@H](C)[C@H](C)CC[C@]4(C(=O)NCCN4CCCCC4)CC[C@]12C)C3(C)C (some centres unmarked) [4d, N-(2-(Piperidin-1-yl)ethyl)-5′-methyl-1′H-ursa-2,12-dieno[3,2-b]indol-28-carboxamide] | ~1 | ~1 | 16 ± 1.07 | 0 | 13 | 32.7 | 71.7 | 195 to 197 | 1.75 ± 0.11 | 1.47 ± 0.12
Cc1ccc2[nH]c3c(c2c1)C[C@@]1(C)C(CC[C@]2(C)C1CC=C1C4[C@@H](C)[C@H](C)CC[C@]4(C(=O)NCCN4CCOCC4)CC[C@]12C)C3(C)C (some centres unmarked) [4e, N-(2-Morpholinoethyl)-5′-methyl-1′H-ursa-2,12-dieno[3,2-b]indol-28-carboxamide] | 7.82 ± 0.78 | 10.7 ± 2.09 | > 50 | – | 0 | 26.8 | 63.3 | 104 to 105 | – | –
Cc1ccc2[nH]c3c(c2c1)C[C@@]1(C)C(CC[C@]2(C)C1CC=C1C4[C@@H](C)[C@H](C)CC[C@]4(C(=O)NCCN4CCN(C)CC4)CC[C@]12C)C3(C)C (some centres unmarked) [4f, N-(2-(4-Methylpiperazin-1-yl)ethyl)-5′-methyl-1′H-ursa-2,12-dieno[3,2-b]indol-28-carboxamide] | ~1 | ~1 | 18.3 ± 0.78 | – | 0 | 31.3 | 73.7 | 188 to 190 | 1.24 ± 0.16 | 1.35 ± 0.17
Cc1ccc2[nH]c3c(c2c1)C[C@@]1(C)C(CC[C@]2(C)C1CC=C1C4[C@@H](C)[C@H](C)CC[C@]4(C(=O)NCCCCN4CCOCC4)CC[C@]12C)C3(C)C (some centres unmarked) [6e, N-(4-Morpholinobutyl)-5′-methyl-1′H-ursa-2,12-dieno[3,2-b]indol-28-carboxamide] | 4.55 ± 1.56 | 7.84 ± 2.31 | 35.4 ± 3.13 | – | 0 | 28.2 | 65.6 | – | – | –
Cc1ccc2[nH]c3c(c2c1)C[C@@]1(C)C(CC[C@]2(C)C1CC=C1C4[C@@H](C)[C@H](C)CC[C@]4(C(=O)NCCCCN4CCN(C)CC4)CC[C@]12C)C3(C)C (some centres unmarked) [6f, N-(4-(4-Methylpiperazin-1-yl)butyl)-5′-methyl-1′H-ursa-2,12-dieno[3,2-b]indol-28-carboxamide] | ~1 | ~1 | 13.7 ± 1.28 | – | 0 | 39.8 | 81.8 | – | 0.65 ± 0.07 | 1.01 ± 0.12
CC[C@@]1(O)C(=O)OCc2c1cc1n(c2=O)Cc2cc3ccccc3nc2-1 [CPT, camptothecin, reference compound] | 0.56 ± 0.18 | 1.12 ± 0.26 | 8.93 ± 0.52 | 38.2 | 75.1 | – | – | – | – | –
COc1cccc2c1C(=O)c1c(O)c3c(c(O)c1C2=O)C[C@@](O)(C(=O)CO)C[C@@H]3O[C@H]1C[C@H](N)[C@H](O)[C@H](C)O1 [DOX, doxorubicin, reference compound] | 0.68 ± 0.11 | 0.81 ± 0.19 | 5.32 ± 0.67 | – | – | – | – | – | – | –
COc1cc([C@@H]2c3cc4c(cc3[C@@H](O[C@@H]3O[C@@H]5CO[C@@H](C)O[C@H]5[C@H](O)[C@H]3O)[C@H]3COC(=O)[C@H]23)OCO4)cc(OC)c1O [VP-16, etoposide, reference compound] | 0.36 ± 0.1 | 0.57 ± 0.16 | 5.92 ± 0.29 | – | – | 47.8 | 88.5 | – | – | –
